Earlier results on 7 molecules are cited in patent US9486463B2, “Chemosensory receptor ligand-based therapies” (AMBRA BIOSCIENCE LLC, priority 2010, dated 2016).

One series concerns the target T1, sweet receptor (Homo sapiens, UniProt Q7RTX0+Q8TE23).
T1 sequence (Q8TE23 20-839): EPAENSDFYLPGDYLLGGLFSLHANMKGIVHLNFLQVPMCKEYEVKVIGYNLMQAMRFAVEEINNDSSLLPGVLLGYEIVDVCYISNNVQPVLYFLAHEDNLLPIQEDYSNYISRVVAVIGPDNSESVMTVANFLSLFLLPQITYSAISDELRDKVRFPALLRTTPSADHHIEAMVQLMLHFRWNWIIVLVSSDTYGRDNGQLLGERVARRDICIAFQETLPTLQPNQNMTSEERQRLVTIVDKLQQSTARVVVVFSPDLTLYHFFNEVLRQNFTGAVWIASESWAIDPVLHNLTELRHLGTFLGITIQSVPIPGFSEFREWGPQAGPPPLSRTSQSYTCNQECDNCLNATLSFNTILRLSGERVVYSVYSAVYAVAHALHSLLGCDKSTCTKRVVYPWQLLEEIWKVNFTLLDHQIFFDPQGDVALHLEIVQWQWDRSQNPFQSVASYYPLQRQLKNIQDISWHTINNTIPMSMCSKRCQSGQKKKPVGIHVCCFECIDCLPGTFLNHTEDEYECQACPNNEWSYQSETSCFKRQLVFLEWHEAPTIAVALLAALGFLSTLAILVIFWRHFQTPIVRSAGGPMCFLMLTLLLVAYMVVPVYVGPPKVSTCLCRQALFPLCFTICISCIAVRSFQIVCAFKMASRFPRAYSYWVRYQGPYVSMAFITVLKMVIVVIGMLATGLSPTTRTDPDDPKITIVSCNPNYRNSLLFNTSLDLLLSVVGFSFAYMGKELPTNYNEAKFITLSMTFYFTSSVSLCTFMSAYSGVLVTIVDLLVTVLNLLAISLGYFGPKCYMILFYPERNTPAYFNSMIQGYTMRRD
T1 sequence (Q7RTX0 21-852): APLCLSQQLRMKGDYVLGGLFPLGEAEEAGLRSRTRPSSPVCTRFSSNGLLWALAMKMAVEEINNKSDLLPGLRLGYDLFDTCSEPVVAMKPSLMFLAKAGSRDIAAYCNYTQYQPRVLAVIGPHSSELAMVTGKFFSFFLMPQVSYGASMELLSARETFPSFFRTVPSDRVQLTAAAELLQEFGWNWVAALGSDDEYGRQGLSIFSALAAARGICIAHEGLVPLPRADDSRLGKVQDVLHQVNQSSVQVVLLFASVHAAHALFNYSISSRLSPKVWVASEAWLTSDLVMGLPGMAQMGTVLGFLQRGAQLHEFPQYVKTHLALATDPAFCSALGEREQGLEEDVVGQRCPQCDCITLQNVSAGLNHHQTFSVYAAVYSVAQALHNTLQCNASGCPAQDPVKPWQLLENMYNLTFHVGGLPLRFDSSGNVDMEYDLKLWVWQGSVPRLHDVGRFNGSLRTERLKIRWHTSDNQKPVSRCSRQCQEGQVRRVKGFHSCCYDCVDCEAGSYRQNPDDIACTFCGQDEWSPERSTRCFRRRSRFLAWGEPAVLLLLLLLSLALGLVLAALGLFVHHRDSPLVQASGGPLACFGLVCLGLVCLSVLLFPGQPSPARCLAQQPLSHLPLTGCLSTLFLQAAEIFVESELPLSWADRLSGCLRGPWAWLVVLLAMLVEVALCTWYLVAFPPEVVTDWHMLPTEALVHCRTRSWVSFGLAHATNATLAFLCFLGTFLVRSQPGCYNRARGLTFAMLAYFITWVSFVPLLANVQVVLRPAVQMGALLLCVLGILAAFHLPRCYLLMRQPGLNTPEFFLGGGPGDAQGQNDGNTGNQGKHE
The settings on record: relative sweetness on a weight comparison basis to sucrose (=1.0).

Series [1] relates to humans.
Series [2] deals with rats.
For series [3], the system named is humans. The source holds these as a separate data set.
Series [4] relates to rats. This is another data set of the same source.
Series [5] has as its system humans. The settings on record: instillation into the duodenum of humans.
Series [6] concerns rats. The source holds these as a separate data set.
The test system of series [7] is patients with jejunostomy.

Consider `C=C(C)C1CC=C(/C=N/O)CC1` (centres unmarked) [Perillartine (10), Perillartine], for which, on sweet receptor, the Sweetness/potency was 370.

Take `C=C1C[C@@]23CC[C@H]4[C@@](C)(CCC[C@@]4(C)C(=O)O[C@@H]4O[C@H](CO)[C@@H](O)[C@H](O)[C@H]4O)[C@@H]2CC[C@]1(O[C@@H]1O[C@H](CO)[C@@H](O)[C@H](O[C@@H]2O[C@H](CO)[C@@H](O)[C@H](O)[C@H]2O)[C@H]1O[C@@H]1O[C@H](CO)[C@@H](O)[C@H](O)[C@H]1O)C3` [Rebaudioside A (4), Rebaudioside A]: the “Gut hormones in the circulation” value with humans [1] is listed as “no alterations”.

Take `N[C@@H](CCC(=O)O)C(=O)O` [glutamate]: in the series on rats [2], the Abdominal fat entry is on record as “reduced abdominal fat” and the Weight gain result is “decreased weight gain”.

With `OCCN1C[C@H](O)[C@@H](O)[C@H](O)[C@H]1CO` [miglitol], the “Post-prandial GLP-1 levels” value in the series with humans [3] is “increase”. In the series on rats [4], the “Increase in GLP-1, interaction with administration of a DPP-IV inhibitor” value was “synergistic”.

Take `OC[C@H]1O[C@H](O[C@]2(CCl)O[C@H](CCl)[C@@H](O)[C@@H]2O)[C@H](O)[C@@H](O)[C@H]1Cl` [sucralose]: the Gut hormone release result in the series with humans [5] and with rats [6] was “no effect” throughout.

As for Dulcoside A [Dulcoside A (15)], the Sweetness/potency on sweet receptor is 30.

For “GLP-2: gut hormone administered in patients with jejunostomy (HADGSFSDEMNTILDNLAARDFINWLIQTKITD; Glucagon-like peptide 2; UniProt P01275 146-178, looked up)”, in series [7], the “Gastric emptying of solids and liquids” value is recorded as “prolong”; the “Intestinal absorption of energy and intestinal wet weight absorption” value is given as “improve”.
